Measured values: ChEMBL document CHEMBL1144081, “Sesquiterpene lactones from neurolaena oaxacana” (1999)
≈ marks a conversion by molar mass, not a printed value.

How the values were obtained:
Entamoeba histolytica = assay: […] activity against Entamoeba histolytica; type: functional
Giardia intestinalis = assay: Antigiardial activity against Giardia intestinalis; type: functional; settings: Giardia duodenalis

MIC (Entamoeba histolytica)	MIC (Giardia intestinalis)	SMILES
2.9 µM (≈ 1.39 µg/mL)		CC[C@H]1CN2CCc3cc(OC)c(OC)cc3[C@@H]2C[C@@H]1C[C@H]1NCCc2cc(OC)c(OC)cc21 [EMETINE]
7.6 µM (≈ 3.21 µg/mL)	3.8 µM (≈ 1.61 µg/mL)	C=C1C(=O)O[C@@H]2C[C@@H](C)/C=C\C(=O)[C@@](C)(O)[C@H](OC(C)=O)[C@@H](OC(=O)CC(C)C)[C@@H]12 [NEUROLENIN B]
	1.17 µM (≈ 0.2 µg/mL)	Cc1ncc([N+](=O)[O-])n1CCO [METRONIDAZOLE]
